Measurements: BindingDB's records for doi:10.1021/jm00062a001 (Upjohn Laboratories, 1993)

Tests used:
[1] = biological target: 5-hydroxytryptamine receptor 1A (Bos taurus); test: Binding affinity against 5-hydroxytryptamine 1A receptor from bovine hippocampus, used [3H]8-OH-DPAT as radioligand
[2] = as above

Row | Compound | Ki [1] [nM] | Ki [2] [nM]
1 | Cc1[nH]c2cccc3c2c1C[C@@H]1C3C[C@H](NC(=O)C(C)(C)C)CN1C (some centres not stated) [SDZ-208-911] | 19 | –
2 | CCCN1CC[C@H]2c3c(cccc3OC)CC[C@H]21 [(3aS,9bR) 9-Methoxy-3-propyl-2,3,3a,4,5,9b-hexahydro-1H-benzo[e]indole] | – | 4.4
